{"source": "PubChem BioAssay AID270", "about": "(DTP/NCI, 2004)", "test_system": "BDF1 mice, s.c. Lewis lung carcinoma, T/C %", "assay": "NCI In Vivo Anticancer Drug Screen. Data for tumor model Lewis Lung Carcinoma (subcutaneous) in B6D2F1 (BDF1) mice", "procedure,_shortened": "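Readout: survival or tumor size, expressed as treated (T) over vehicle control (C). Transplantable tumor implanted in mice; compound given to the treated group.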", "note": "Values joined by “and” are separate entries in the source; they are usually repeats but may differ in a detail not shown here. Equal entries are not always repeated. Inconclusive results are not listed. *1 amine or outer side, *2 acyl side, *3 side chain or, on linkers, in order; H or OH if unused. Where a SMILES comes first, the peptide text is derived from it. Bridges are numbered along the chain shown (N, C = ends). Roman numbers before positions name the chains, in order. [ ]: non-standard residue; d: D form. Actinocin(1to9) = Cc1c2oc3c(C)ccc(C(=O)[*:2])c3nc-2c(C(=O)[*:1])c(N)c1=O; X1 = O=C1CC(C(=O)[*:2])N([*:1])C1; NMeV = CN[CH](C(=O)O)C(C)C; Sar = CNCC(=O)O", "data": [{"molecule": "N=C(N)NC(=N)Nc1ccc(NC(=O)Nc2ccc(Nc3c4ccccc4nc4cc([N+](=O)[O-])ccc34)cc2)cc1", "values": [{"measurement": "T/C", "setting": "endpoint: median survival time, dose: 1.56 mg/kg/injection, schedule: Q01DX009 (ip), vehicle: water, higher = longer survival", "result": "111 % of control"}, {"measurement": "T/C", "setting": "endpoint: median survival time, dose: 6.25 mg/kg/injection, schedule: Q01DX009 (ip), vehicle: water, higher = longer survival", "result": "108 % of control"}, {"measurement": "T/C", "setting": "endpoint: median survival time, dose: 12.5 mg/kg/injection, schedule: Q01DX009 (ip), vehicle: water, higher = longer survival", "result": "112 % of control"}, {"measurement": "T/C", "setting": "endpoint: median survival time, dose: 25.0 mg/kg/injection, schedule: Q01DX009 (ip), vehicle: water, higher = longer survival", "result": "103 % of control"}, {"measurement": "T/C", "setting": "endpoint: median survival time, dose: 50.0 mg/kg/injection, schedule: Q01DX009 (ip), vehicle: water, higher = longer survival", "result": "112 % of control"}]}, {"molecule": "CO/[N+]([O-])=C\\C(=O)N/C=C/C(=O)O", "values": [{"measurement": "T/C", "setting": "endpoint: mean tumor weight, dose: 22.0 mg/kg/injection, schedule: Q01DX011 (ip), vehicle: carboxymethylcellulose (CMC), higher = larger tumour", "result": "80 % of control"}, {"measurement": "T/C", "setting": "endpoint: mean tumor weight, dose: 33.0 mg/kg/injection, schedule: Q01DX011 (ip), vehicle: carboxymethylcellulose (CMC), higher = larger tumour", "result": "57 % of control"}]}, {"molecule": "CCSC(=O)N1c2ccc(OC)cc2C=CC1C#N", "note": "(configuration not stated)", "values": [{"measurement": "T/C", "setting": "endpoint: median survival time, dose: 100.0 mg/kg/injection, schedule: Q01DX009 (ip), vehicle: saline with Tween-80, higher = longer survival", "result": "122 % of control"}, {"measurement": "T/C", "setting": "endpoint: median survival time, dose: 200.0 mg/kg/injection, schedule: Q01DX009 (ip), vehicle: saline with Tween-80, higher = longer survival", "result": "102 % of control"}, {"measurement": "T/C", "setting": "endpoint: median survival time, dose: 400.0 mg/kg/injection, schedule: Q01DX009 (ip), vehicle: saline with Tween-80, higher = longer survival", "result": "108 % of control"}]}, {"molecule": "CCC[CH2][Sn]1([CH2]CCC)[N](S(=O)(=O)c2ccc(C)cc2)c2ccccc2[N]1S(=O)(=O)c1ccc(C)cc1", "values": [{"measurement": "T/C", "setting": "endpoint: median survival time, dose: 1.5 mg/kg/injection, schedule: Q01DX009 (ip), vehicle: Klucel (hydroxypropylcellulose) (HPC), higher = longer survival", "result": "111 % of control"}, {"measurement": "T/C", "setting": "endpoint: median survival time, dose: 3.0 mg/kg/injection, schedule: Q01DX009 (ip), vehicle: Klucel (hydroxypropylcellulose) (HPC), higher = longer survival", "result": "90 % of control"}, {"measurement": "T/C", "setting": "endpoint: median survival time, dose: 6.0 mg/kg/injection, schedule: Q01DX009 (ip), vehicle: Klucel (hydroxypropylcellulose) (HPC), higher = longer survival", "result": "101 % of control"}]}, {"molecule": "Clc1ccc(C(c2ccccc2Cl)C(Cl)Cl)cc1", "note": "(configuration not stated)", "values": [{"measurement": "T/C", "setting": "endpoint: mean tumor weight, dose: 62.5 mg/kg/injection, schedule: Q01DX011 (sc), vehicle: steriod suspending solution, higher = larger tumour", "result": "98 % of control"}, {"measurement": "T/C", "setting": "endpoint: mean tumor weight, dose: 125.0 mg/kg/injection, schedule: Q01DX011 (sc), vehicle: steriod suspending solution, higher = larger tumour", "result": "113 % of control"}, {"measurement": "T/C", "setting": "endpoint: mean tumor weight, dose: 250.0 mg/kg/injection, schedule: Q01DX011 (sc), vehicle: steriod suspending solution, higher = larger tumour", "result": "84 % of control"}, {"measurement": "T/C", "setting": "endpoint: mean tumor weight, dose: 500.0 mg/kg/injection, schedule: Q01DX011 (sc), vehicle: steriod suspending solution, higher = larger tumour", "result": "99 % of control"}]}, {"molecule": "Cc1c2oc3c(C)ccc(C(=O)NC4C(=O)NC(C(C)C)C(=O)N5CCCC5C(=O)N(C)CC(=O)N(C)C(C(C)C)C(=O)OC4C)c3nc-2c(C(=O)NC2C(=O)NC(C(C)C)C(=O)N3CC(=O)CC3C(=O)N(C)CC(=O)N(C)C(C(C)C)C(=O)OC2C)c(N)c1=O", "note": "(configuration not stated) (I: TV[X1][Sar][NMeV] / II: TVP[Sar][NMeV]; ester I:1-I:C, II:1-II:C; linker I:N-II:N via Actinocin(1to9); configuration not given here)", "values": [{"measurement": "T/C", "setting": "endpoint: median survival time, dose: 3.1 micrograms/kg/injection, schedule: Q01DX009 (ip), vehicle: water, higher = longer survival", "result": "112 % of control"}, {"measurement": "T/C", "setting": "endpoint: median survival time, dose: 6.2 micrograms/kg/injection, schedule: Q01DX009 (ip), vehicle: water, higher = longer survival", "result": "111 % of control"}, {"measurement": "T/C", "setting": "endpoint: median survival time, dose: 9.4 micrograms/kg/injection, schedule: Q04DX003 (ip), vehicle: water, higher = longer survival", "result": "108 % of control"}, {"measurement": "T/C", "setting": "endpoint: median survival time, dose: 12.5 micrograms/kg/injection, schedule: Q01DX009 (ip), vehicle: water, higher = longer survival", "result": "87 % of control"}, {"measurement": "T/C", "setting": "endpoint: median survival time, dose: 18.8 micrograms/kg/injection, schedule: Q04DX003 (ip), vehicle: water, higher = longer survival", "result": "109 % of control"}, {"measurement": "T/C", "setting": "endpoint: median survival time, dose: 37.5 micrograms/kg/injection, schedule: Q04DX003 (ip), vehicle: water, higher = longer survival", "result": "108 % of control"}]}, {"molecule": "O=CNCCNC=O", "values": [{"measurement": "T/C", "setting": "endpoint: mean tumor weight, dose: 148.0 mg/kg/injection, schedule: Q01DX011 (ip), vehicle: saline, higher = larger tumour", "result": "96 % of control"}, {"measurement": "T/C", "setting": "endpoint: mean tumor weight, dose: 333.0 mg/kg/injection, schedule: Q01DX011 (ip), vehicle: saline, higher = larger tumour", "result": "98 % of control"}, {"measurement": "T/C", "setting": "endpoint: mean tumor weight, dose: 500.0 mg/kg/injection, schedule: Q01DX011 (ip), vehicle: saline, higher = larger tumour", "result": "115 % of control"}]}, {"molecule": "CCOC(C)C(/C=N/NC(N)=S)=NNC(N)=S", "note": "(configuration not stated)", "values": [{"measurement": "T/C", "setting": "endpoint: mean tumor weight, dose: 30.0 mg/kg/injection, schedule: Q01DX011 (ip), vehicle: saline, higher = larger tumour", "result": "77 % of control"}, {"measurement": "T/C", "setting": "endpoint: mean tumor weight, dose: 60.0 mg/kg/injection, schedule: Q01DX011 (ip), vehicle: saline, higher = larger tumour", "result": "81 % of control"}, {"measurement": "T/C", "setting": "endpoint: mean tumor weight, dose: 120.0 mg/kg/injection, schedule: Q01DX011 (ip), vehicle: saline, higher = larger tumour", "result": "66 % of control"}]}, {"molecule": "N/C(CCSc1ccccc1N=Cc1ccccc1O)=N/O", "values": [{"measurement": "T/C", "setting": "endpoint: median survival time, dose: 3.13 mg/kg/injection, schedule: Q01DX009 (ip), vehicle: olive oil, sesame oil, peanut oil, higher = longer survival", "result": "87 % of control"}]}, {"molecule": "CS(=O)(=O)OCC(O)C(O)C(O)C(O)COS(C)(=O)=O", "note": "(configuration not stated)", "values": [{"measurement": "T/C", "setting": "endpoint: mean tumor weight, dose: 50.0 mg/kg/injection, schedule: Q01DX011 (ip), vehicle: saline, higher = larger tumour", "result": "86 % of control and 97 % of control"}, {"measurement": "T/C", "setting": "endpoint: mean tumor weight, dose: 200.0 mg/kg/injection, schedule: Q01DX011 (ip), vehicle: saline, higher = larger tumour", "result": "54 % of control and 60 % of control"}, {"measurement": "T/C", "setting": "endpoint: mean tumor weight, dose: 400.0 mg/kg/injection, schedule: Q01DX011 (ip), vehicle: saline, higher = larger tumour", "result": "58 % of control"}]}, {"molecule": "Cc1c(N)nc(C(CC(N)=O)NCC(N)C(N)=O)nc1C(=O)NC(C(=O)NC(C)C(O)C(C)C(=O)NC(C(=O)NCCc1nc(-c2nc(C(=O)NCCC[S+](C)C)cs2)cs1)C(C)O)C(OC1OC(CO)C(O)C(O)C1OC1OC(CO)C(O)C(OC(N)=O)C1O)c1cnc[nH]1", "note": "(configuration not stated)", "values": [{"measurement": "T/C", "setting": "endpoint: median survival time, dose: 0.5 mg/kg/injection, schedule: Q01DX009 (ip), vehicle: Klucel (hydroxypropylcellulose) (HPC), higher = longer survival", "result": "116 % of control"}, {"measurement": "T/C", "setting": "endpoint: median survival time, dose: 1.0 mg/kg/injection, schedule: Q01DX009 (ip), vehicle: Klucel (hydroxypropylcellulose) (HPC), higher = longer survival", "result": "121 % of control"}, {"measurement": "T/C", "setting": "endpoint: median survival time, dose: 2.0 mg/kg/injection, schedule: Q01DX009 (ip), vehicle: Klucel (hydroxypropylcellulose) (HPC), higher = longer survival", "result": "121 % of control"}, {"measurement": "T/C", "setting": "endpoint: median survival time, dose: 4.0 mg/kg/injection, schedule: Q01DX009 (ip), vehicle: Klucel (hydroxypropylcellulose) (HPC), higher = longer survival", "result": "121 % of control"}]}]}
